In this assay the target is BACE1 (Homo sapiens, UniProt P56817). As to the kind of experiment: Antiproteolytic activity assay against BACE1. In kind it is biochemical. Conditions: fold less potent against BACE1 than against cathepsins D and E.

Molecules are shown by their SMILES. Starred links: 1 amine or outer side, 2 acyl side, 3 side chain; linkers in the order of their positions; H or OH if unused. Non-standard residues stand in square brackets, D forms with d. Residues, ends and D or L forms follow the SMILES beside them. Ahppa(3S,4S) = O=C(C[C@H](O)[C@H](Cc1ccccc1)N[*:1])[*:2]; dNMeF = CN[C@H](Cc1ccccc1)C(=O)O; NMeQ = CN[C@@H](CCC(N)=O)C(=O)O; Lac = C[C@H](O)C(=O)O

BACE1, sequence (P56817 46-501): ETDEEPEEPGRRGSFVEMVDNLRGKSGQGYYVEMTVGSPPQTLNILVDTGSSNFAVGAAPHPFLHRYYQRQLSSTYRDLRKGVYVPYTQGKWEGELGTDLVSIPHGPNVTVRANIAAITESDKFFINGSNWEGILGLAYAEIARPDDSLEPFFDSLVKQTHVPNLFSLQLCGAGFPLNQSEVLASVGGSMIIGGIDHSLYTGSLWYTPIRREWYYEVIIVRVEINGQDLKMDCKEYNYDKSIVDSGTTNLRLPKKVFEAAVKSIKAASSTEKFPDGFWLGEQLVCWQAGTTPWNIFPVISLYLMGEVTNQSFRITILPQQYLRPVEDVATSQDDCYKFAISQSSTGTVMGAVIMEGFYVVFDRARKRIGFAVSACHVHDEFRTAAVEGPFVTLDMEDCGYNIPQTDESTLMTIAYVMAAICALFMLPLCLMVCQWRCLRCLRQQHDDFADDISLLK

With `CC[C@H](C)[C@H](NC(=O)C[C@H](O)[C@H](Cc1ccccc1)NC(=O)[C@H](CCC(N)=O)N(C)C(=O)[C@@H](NC(=O)[C@H](C)O)[C@@H](C)CC)C(=O)NCC(=O)N(C)[C@H](Cc1ccccc1)C(=O)N1CCC[C@H]1C(=O)OC` [Tasiamide F (1), Tasiamide F] (H-[Lac]I[NMeQ][Ahppa(3S,4S)]IG[dNMeF]P-OMe), the “Selectivity ratio IC50 BACE1/CatD–E” value is given as 12–30.
